Common to all, as to test: biochemical
What all share (set-up): in vitro kinase selectivity panel, protein and lipid kinases, single concentration, ATP at Km
Common to all, as to conditions: ATP at Km

For one test, the target named is T1, CHK1(h) (Homo sapiens, UniProt O14757).
T1 construct: gene CHEK1
The protocol:
(§1) CRT0066101 was described previously ([48]) and was purchased for this study from Tocris, with a purity of 99.9%. CRT0066101 (XX-209) and compound XX-050 were synthesized as previously described ([68]). CRT0066051 (Y-095) was also synthesized as previously described ([69]). […] CRT0066101 can also be obtained in larger quantities from Ximbio. Inhibitors were tested in in vitro PKD kinase assays and cellular assays on PANC1 cells as previously described ([48]). The selectivity of the three PKD inhibitors was determined against a panel of protein and lipid kinases by Eurofins and the MRC PPU International Centre for Kinase Profiling (http://www.kinase-screen.mrc.ac.uk), respectively. Each inhibitor was tested at a single concentration of 1 μM and at an ATP concentration equivalent to the Km for each kinase. Having shown that HRV infection appears to activate PKD, we went on to explore the influence of chemical inhibitors of PKD on HRV replication. The compound CRT0066101 is a specific and potent PKD inhibitor that has been used in studies exploring its potential as an anticancer target ([48], [51]). This inhibitor has a 50% inhibitory concentration (IC50) of 1 nM against purified PKD in biochemical assays and a 50% effective concentration (EC50) of 1 μM in a cell-based assay (Table 1). We pretreated HeLa cells with increasing concentrations of the drug for 1 h followed by infection with HRV16. Viral replication was subsequently measured at 6 hpi by quantitative real-time PCR (qRT-PCR) (Fig. 2A) and by Western blotting using an antibody against the viral nonstructural protein 2C (Fig. 2B). […] Furthermore, we tested two novel and structurally different PKD inhibitors (CRT0066051 and XX-050) (Table 1) and confirmed that they too inhibited HRV 2C expression although with different potencies (Fig. 2D). Kinase selectivity profiling of all three PKD inhibitors was performed against a panel of protein and lipid kinases at a drug concentration of 1 μM and at an ATP concentration equivalent to the Km of each kinase (see Table S1 in the supplemental material). […] Since PKD is known to be involved in regulating the architecture of the Golgi apparatus, we confirmed the pharmacodynamic effect of these inhibitors by demon

The target of a further test is Fes(h) (Homo sapiens, UniProt P07332). The protocol:
as §1

In the next test the target is T2, PKCε(h) (Homo sapiens, UniProt Q02156).
T2 construct: gene PRKCE
T2 sequence (Q02156 whole entry): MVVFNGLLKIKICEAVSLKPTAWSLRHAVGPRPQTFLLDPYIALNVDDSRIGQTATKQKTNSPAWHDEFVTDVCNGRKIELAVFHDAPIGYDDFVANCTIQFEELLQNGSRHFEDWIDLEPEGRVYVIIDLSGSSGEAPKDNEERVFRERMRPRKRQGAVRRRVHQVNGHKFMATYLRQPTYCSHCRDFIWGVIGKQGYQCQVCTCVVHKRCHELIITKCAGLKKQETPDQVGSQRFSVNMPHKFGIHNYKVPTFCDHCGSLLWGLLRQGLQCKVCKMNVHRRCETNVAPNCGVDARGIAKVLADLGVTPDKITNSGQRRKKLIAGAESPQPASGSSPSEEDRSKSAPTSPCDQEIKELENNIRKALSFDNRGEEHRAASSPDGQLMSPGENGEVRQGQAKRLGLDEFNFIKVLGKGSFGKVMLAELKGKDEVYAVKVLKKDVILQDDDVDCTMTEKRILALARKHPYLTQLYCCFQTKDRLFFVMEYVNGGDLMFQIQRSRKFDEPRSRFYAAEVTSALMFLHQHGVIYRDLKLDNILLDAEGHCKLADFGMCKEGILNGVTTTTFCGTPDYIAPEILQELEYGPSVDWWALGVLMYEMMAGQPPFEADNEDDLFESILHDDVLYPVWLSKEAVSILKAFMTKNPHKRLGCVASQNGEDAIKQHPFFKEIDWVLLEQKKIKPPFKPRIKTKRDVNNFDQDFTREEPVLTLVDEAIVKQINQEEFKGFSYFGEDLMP
The protocol: as §1

The next test deals with JAK2(h) (Homo sapiens, UniProt O60674). The protocol: as §1
A further test has as its target PIK3CG (Homo sapiens, UniProt P48736). The protocol:
as §1

Another test deals with PIP4K2A (Homo sapiens, UniProt P48426). The method, then:
as §1

The target of a further test is EGFR(h) (Homo sapiens, UniProt P00533). The protocol: as §1
Another test deals with T3, Yes(h) (Homo sapiens, UniProt P07947).
T3 construct: gene YES1
The protocol:
as §1

Another test addresses T4, MST2(h) (Homo sapiens, UniProt Q13188).
T4 construct: gene STK3
The method, then:
as §1

For the next test, the target named is T5, BRK(h) (Homo sapiens, UniProt Q13882).
T5 construct: gene PTK6
T5 sequence (Q13882 whole entry): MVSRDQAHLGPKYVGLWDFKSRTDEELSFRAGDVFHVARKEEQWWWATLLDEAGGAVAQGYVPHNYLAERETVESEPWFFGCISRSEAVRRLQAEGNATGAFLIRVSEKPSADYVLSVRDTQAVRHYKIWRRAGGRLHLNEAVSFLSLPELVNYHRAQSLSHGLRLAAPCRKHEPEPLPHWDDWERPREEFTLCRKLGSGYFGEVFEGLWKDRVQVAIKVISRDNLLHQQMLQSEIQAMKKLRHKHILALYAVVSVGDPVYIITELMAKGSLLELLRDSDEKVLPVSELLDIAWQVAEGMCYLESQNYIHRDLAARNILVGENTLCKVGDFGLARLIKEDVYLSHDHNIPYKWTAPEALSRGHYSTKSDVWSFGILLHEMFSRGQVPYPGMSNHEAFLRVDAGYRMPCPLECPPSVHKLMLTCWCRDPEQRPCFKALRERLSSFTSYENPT
The protocol: as §1

The target of the next test is PAK4(h) (Homo sapiens, UniProt O96013). The method, then: as §1
Chain of PAK4(h) (O96013 whole entry): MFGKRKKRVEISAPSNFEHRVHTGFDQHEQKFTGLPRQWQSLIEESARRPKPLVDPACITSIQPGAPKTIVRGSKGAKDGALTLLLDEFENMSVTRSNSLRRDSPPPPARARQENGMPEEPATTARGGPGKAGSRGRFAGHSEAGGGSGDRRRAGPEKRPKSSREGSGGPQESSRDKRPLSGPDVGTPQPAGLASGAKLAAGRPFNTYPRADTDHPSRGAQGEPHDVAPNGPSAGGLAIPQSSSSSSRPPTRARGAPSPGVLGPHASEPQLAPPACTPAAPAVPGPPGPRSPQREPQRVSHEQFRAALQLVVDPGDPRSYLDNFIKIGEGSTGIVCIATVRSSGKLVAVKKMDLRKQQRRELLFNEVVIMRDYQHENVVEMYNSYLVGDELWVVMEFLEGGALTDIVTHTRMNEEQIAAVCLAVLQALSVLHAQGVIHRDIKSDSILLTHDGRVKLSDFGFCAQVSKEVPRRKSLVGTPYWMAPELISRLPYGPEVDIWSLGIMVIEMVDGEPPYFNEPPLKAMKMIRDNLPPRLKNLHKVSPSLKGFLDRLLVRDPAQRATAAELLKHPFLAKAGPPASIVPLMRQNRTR
Another test deals with T6, cSRC(h) (Homo sapiens, UniProt P12931).
T6 construct: gene SRC
T6 sequence (P12931 whole entry): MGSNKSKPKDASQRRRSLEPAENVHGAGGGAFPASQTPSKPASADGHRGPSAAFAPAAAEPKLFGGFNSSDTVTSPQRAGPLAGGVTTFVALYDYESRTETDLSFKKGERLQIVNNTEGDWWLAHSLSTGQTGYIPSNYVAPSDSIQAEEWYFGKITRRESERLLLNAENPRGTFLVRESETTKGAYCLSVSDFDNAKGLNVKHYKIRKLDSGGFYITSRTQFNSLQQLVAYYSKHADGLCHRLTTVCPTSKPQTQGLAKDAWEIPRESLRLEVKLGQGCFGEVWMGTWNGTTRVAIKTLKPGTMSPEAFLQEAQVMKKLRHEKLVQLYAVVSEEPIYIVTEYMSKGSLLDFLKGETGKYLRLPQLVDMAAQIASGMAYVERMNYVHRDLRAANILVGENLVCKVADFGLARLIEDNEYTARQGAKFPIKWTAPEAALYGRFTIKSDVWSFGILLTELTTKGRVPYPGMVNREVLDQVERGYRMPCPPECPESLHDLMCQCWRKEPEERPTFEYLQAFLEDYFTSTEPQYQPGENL
The protocol: as §1

The next test concerns the target CDK1/cyclinB(h) (Homo sapiens, UniProt P06493). The method, then: as §1
The target in the next test is CSK(h) (Homo sapiens, UniProt P41240). The protocol: as §1
Chain of CSK(h) (P41240 whole entry): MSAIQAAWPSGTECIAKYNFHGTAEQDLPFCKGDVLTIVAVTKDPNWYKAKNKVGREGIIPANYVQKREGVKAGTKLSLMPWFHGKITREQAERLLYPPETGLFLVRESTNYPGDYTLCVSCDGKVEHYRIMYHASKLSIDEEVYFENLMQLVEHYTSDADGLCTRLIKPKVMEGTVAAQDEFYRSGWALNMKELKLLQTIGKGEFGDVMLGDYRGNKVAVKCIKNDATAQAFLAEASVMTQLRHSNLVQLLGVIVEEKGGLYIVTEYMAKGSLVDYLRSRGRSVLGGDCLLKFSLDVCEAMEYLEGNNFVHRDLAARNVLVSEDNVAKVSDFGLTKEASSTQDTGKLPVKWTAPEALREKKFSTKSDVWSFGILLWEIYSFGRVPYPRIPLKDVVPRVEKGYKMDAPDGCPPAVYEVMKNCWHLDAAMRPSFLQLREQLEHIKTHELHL
Another test has as its target MELK(h) (Homo sapiens, UniProt Q14680). The method, then:
as §1

The next test addresses T7, PKBα(h) (Homo sapiens, UniProt P31749).
T7 construct: gene AKT1
The protocol:
as §1

The target in another test is EGFR(L861Q)(h) (Homo sapiens, UniProt P00533, L861Q). The method, then: as §1
The next test deals with T8, IKKα(h) (Homo sapiens, UniProt O15111).
T8 construct: gene CHUK
The method, then: as §1

Here are results for 1 compound from publication PMC5391474, “Investigation of the Role of Protein Kinase D in Human Rhinovirus Replication” (Journal of Virology, 2017).

SMILES strings stand for the structures.

T4 sequence (Q13188 whole entry): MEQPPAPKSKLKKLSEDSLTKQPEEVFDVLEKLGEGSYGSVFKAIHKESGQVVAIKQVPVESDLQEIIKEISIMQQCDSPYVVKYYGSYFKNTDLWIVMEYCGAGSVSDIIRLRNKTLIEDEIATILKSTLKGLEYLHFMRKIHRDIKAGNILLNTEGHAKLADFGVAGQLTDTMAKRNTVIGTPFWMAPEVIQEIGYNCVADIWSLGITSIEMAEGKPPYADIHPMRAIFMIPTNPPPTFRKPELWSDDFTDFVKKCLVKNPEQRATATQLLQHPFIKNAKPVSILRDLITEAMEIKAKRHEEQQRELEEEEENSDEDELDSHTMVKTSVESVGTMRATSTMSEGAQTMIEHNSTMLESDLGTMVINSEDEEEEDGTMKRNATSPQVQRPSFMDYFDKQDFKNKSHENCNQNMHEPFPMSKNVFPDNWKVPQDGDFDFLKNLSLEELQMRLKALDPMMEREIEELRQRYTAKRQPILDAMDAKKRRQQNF
Chain of Fes(h) (P07332 whole entry): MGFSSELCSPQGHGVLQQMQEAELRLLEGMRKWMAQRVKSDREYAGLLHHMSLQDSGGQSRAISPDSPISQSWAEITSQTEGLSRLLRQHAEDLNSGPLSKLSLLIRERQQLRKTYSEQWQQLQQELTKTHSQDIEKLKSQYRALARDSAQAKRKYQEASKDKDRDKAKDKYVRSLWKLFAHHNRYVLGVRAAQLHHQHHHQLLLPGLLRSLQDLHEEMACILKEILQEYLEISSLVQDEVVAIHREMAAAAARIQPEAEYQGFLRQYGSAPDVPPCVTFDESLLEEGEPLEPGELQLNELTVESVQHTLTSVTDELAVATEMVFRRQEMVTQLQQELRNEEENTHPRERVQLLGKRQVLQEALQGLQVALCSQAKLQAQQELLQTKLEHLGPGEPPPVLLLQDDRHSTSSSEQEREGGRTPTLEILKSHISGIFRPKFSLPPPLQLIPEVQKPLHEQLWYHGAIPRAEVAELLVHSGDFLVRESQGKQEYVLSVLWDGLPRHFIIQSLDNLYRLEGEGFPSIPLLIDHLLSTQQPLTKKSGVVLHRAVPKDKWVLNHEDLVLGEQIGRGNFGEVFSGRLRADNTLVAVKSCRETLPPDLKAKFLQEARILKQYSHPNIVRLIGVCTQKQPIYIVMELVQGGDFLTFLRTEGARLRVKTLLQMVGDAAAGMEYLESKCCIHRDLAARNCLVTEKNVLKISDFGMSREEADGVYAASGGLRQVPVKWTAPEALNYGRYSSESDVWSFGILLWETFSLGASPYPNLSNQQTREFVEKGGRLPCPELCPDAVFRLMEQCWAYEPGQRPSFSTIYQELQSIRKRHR
T1 sequence (O14757 whole entry): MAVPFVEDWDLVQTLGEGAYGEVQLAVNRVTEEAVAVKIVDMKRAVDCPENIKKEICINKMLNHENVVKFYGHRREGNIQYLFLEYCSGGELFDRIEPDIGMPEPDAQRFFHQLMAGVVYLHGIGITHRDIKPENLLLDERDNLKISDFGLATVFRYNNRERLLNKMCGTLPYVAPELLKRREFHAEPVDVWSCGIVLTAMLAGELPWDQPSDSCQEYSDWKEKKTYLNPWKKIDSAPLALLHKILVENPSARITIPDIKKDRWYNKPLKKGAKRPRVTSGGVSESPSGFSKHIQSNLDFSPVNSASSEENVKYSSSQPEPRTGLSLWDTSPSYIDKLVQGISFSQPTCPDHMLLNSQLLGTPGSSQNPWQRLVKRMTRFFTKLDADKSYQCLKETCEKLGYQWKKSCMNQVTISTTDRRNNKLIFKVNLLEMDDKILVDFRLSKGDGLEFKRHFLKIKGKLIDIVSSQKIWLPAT
Chain of PIP4K2A (P48426 whole entry): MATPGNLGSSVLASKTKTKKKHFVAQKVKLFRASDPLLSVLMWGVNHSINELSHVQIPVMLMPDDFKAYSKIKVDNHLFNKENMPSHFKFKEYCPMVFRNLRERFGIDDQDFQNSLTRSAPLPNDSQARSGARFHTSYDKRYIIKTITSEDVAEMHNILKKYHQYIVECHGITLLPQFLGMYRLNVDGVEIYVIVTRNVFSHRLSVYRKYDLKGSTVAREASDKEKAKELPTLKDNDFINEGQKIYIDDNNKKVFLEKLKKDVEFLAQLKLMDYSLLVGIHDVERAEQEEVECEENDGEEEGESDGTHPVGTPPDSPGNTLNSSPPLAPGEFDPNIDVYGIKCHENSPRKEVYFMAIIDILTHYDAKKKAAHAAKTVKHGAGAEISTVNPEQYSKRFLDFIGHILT

As a reminder, the inhibition is the drop in the measured response relative to a control, in per cent. As for `CC[C@@H](N)CNc1ccnc(-c2cc(-c3cnn(C)c3)ccc2O)n1` [CRT0066101], the inhibition at 1 µM is -2% against CHK1(h); -20% on Fes(h); 12% at PKCε(h); 10% at JAK2(h); 29% at PIK3CG; -22% at PIP4K2A. The inhibition at 1 µM on EGFR(h) was -6%; against Yes(h) it was 40%; at MST2(h), 20%; against BRK(h), 17%; against PAK4(h) it was 4%; against cSRC(h), 3%. Also, the inhibition at 1 µM on CDK1/cyclinB(h) is 63%; against CSK(h), 7%; on MELK(h) it was 55%; against PKBα(h), -6%; on EGFR(L861Q)(h), 10%; on IKKα(h), 66%.
